Test results as given in the NIST ThermoML archive (doi:10.1016/j.jct.2005.01.017).

Experiment: xn = mol fraction of the nth substance listed
Conditions: 101 kPa, Liquid

CC1COC(=O)O1 (stereo not drawn) [4-methyl-1,3-dioxolan-2-one] + Cc1ccccc1C
Conditions | mass density [kg/m3]
293.15 K, x2 = 0 | 1200.25
293.15 K, x2 = 0.0538 | 1176.67
293.15 K, x2 = 0.1287 | 1145.43
293.15 K, x2 = 0.1843 | 1123.36
293.15 K, x2 = 0.2358 | 1103.71
293.15 K, x2 = 0.3149 | 1074.93
293.15 K, x2 = 0.3559 | 1060.64
293.15 K, x2 = 0.4247 | 1037.54
293.15 K, x2 = 0.4792 | 1020.01
293.15 K, x2 = 0.5345 | 1002.84
293.15 K, x2 = 0.6031 | 982.36
293.15 K, x2 = 0.6638 | 964.97
293.15 K, x2 = 0.7213 | 949.05
293.15 K, x2 = 0.7832 | 932.49
293.15 K, x2 = 0.8529 | 914.51
293.15 K, x2 = 0.9284 | 895.76
303.15 K, x2 = 0 | 1180.55
303.15 K, x2 = 0.0613 | 1155.03
303.15 K, x2 = 0.1273 | 1128.84
303.15 K, x2 = 0.1732 | 1111.36
303.15 K, x2 = 0.2583 | 1080.45
303.15 K, x2 = 0.3341 | 1054.45
303.15 K, x2 = 0.3619 | 1045.26
303.15 K, x2 = 0.4282 | 1024.01
303.15 K, x2 = 0.4911 | 1004.69
303.15 K, x2 = 0.5538 | 986.2
303.15 K, x2 = 0.6132 | 969.33
303.15 K, x2 = 0.6739 | 952.71
303.15 K, x2 = 0.7428 | 934.53
303.15 K, x2 = 0.8023 | 919.3
303.15 K, x2 = 0.8631 | 904.39
303.15 K, x2 = 0.9347 | 887.3
313.15 K, x2 = 0 | 1161.28
313.15 K, x2 = 0.0643 | 1135.09
313.15 K, x2 = 0.1138 | 1115.77
313.15 K, x2 = 0.1729 | 1093.62
313.15 K, x2 = 0.2483 | 1066.72
313.15 K, x2 = 0.3248 | 1040.87
313.15 K, x2 = 0.3958 | 1018.07
313.15 K, x2 = 0.4587 | 998.77
313.15 K, x2 = 0.518 | 981.29
313.15 K, x2 = 0.5628 | 968.51
313.15 K, x2 = 0.6345 | 948.78
313.15 K, x2 = 0.6948 | 932.83
313.15 K, x2 = 0.7539 | 917.73
313.15 K, x2 = 0.8039 | 905.34
313.15 K, x2 = 0.8621 | 891.32
313.15 K, x2 = 0.9357 | 874.17
323.15 K, x2 = 0 | 1142.43
323.15 K, x2 = 0.0527 | 1120.67
323.15 K, x2 = 0.1328 | 1089.28
323.15 K, x2 = 0.1842 | 1070.13
323.15 K, x2 = 0.2487 | 1047.11
323.15 K, x2 = 0.3398 | 1016.41
323.15 K, x2 = 0.3781 | 1004.09
323.15 K, x2 = 0.4487 | 982.22
323.15 K, x2 = 0.5031 | 966.07
323.15 K, x2 = 0.5529 | 951.78
323.15 K, x2 = 0.6249 | 931.92
323.15 K, x2 = 0.6843 | 916.18
323.15 K, x2 = 0.7451 | 900.64
323.15 K, x2 = 0.8146 | 883.52
323.15 K, x2 = 0.8702 | 870.29
323.15 K, x2 = 0.9429 | 853.56
333.15 K, x2 = 0 | 1123.99
333.15 K, x2 = 0.0578 | 1099.25
333.15 K, x2 = 0.1298 | 1070.06
333.15 K, x2 = 0.1844 | 1049.03
333.15 K, x2 = 0.2358 | 1030.04
333.15 K, x2 = 0.3139 | 1002.61
333.15 K, x2 = 0.3847 | 979.1
333.15 K, x2 = 0.4412 | 961.2
333.15 K, x2 = 0.5055 | 941.69
333.15 K, x2 = 0.5572 | 926.61
333.15 K, x2 = 0.6148 | 910.43
333.15 K, x2 = 0.6627 | 897.43
333.15 K, x2 = 0.7365 | 878.16
333.15 K, x2 = 0.7947 | 863.56
333.15 K, x2 = 0.8634 | 846.95
333.15 K, x2 = 0.9354 | 830.22
343.15 K, x2 = 0 | 1105.98
343.15 K, x2 = 0.0527 | 1081.81
343.15 K, x2 = 0.1278 | 1049.31
343.15 K, x2 = 0.1782 | 1028.67
343.15 K, x2 = 0.2476 | 1001.67
343.15 K, x2 = 0.3279 | 972.32
343.15 K, x2 = 0.3841 | 952.89
343.15 K, x2 = 0.4529 | 930.23
343.15 K, x2 = 0.5139 | 911.13
343.15 K, x2 = 0.5732 | 893.36
343.15 K, x2 = 0.6241 | 878.7
343.15 K, x2 = 0.6742 | 864.77
343.15 K, x2 = 0.7246 | 851.23
343.15 K, x2 = 0.7726 | 838.75
343.15 K, x2 = 0.8523 | 818.84
343.15 K, x2 = 0.9274 | 800.96
353.15 K, x2 = 0 | 1088.38
353.15 K, x2 = 0.0639 | 1056.4
353.15 K, x2 = 0.1128 | 1033.26
353.15 K, x2 = 0.1832 | 1001.84
353.15 K, x2 = 0.2478 | 974.79
353.15 K, x2 = 0.3255 | 944.31
353.15 K, x2 = 0.3859 | 922.03
353.15 K, x2 = 0.4628 | 895.28
353.15 K, x2 = 0.5248 | 874.93
353.15 K, x2 = 0.5819 | 857.07
353.15 K, x2 = 0.6249 | 844.14
353.15 K, x2 = 0.6829 | 827.36
353.15 K, x2 = 0.7249 | 815.64
353.15 K, x2 = 0.7821 | 800.25
353.15 K, x2 = 0.8698 | 777.8

CC1COC(=O)O1 (stereo not drawn) [4-methyl-1,3-dioxolan-2-one] + Cc1cccc(C)c1
Conditions | mass density [kg/m3]
293.15 K, x2 = 0 | 1200.25
293.15 K, x2 = 0.0576 | 1173.76
293.15 K, x2 = 0.1263 | 1143.64
293.15 K, x2 = 0.1735 | 1123.83
293.15 K, x2 = 0.2267 | 1102.36
293.15 K, x2 = 0.2867 | 1079.14
293.15 K, x2 = 0.3548 | 1054
293.15 K, x2 = 0.4243 | 1029.6
293.15 K, x2 = 0.4671 | 1015.15
293.15 K, x2 = 0.5341 | 993.4
293.15 K, x2 = 0.5811 | 978.7
293.15 K, x2 = 0.6532 | 957.01
293.15 K, x2 = 0.7213 | 937.38
293.15 K, x2 = 0.7831 | 920.23
293.15 K, x2 = 0.8421 | 904.39
293.15 K, x2 = 0.9212 | 883.89
303.15 K, x2 = 0 | 1180.56
303.15 K, x2 = 0.0476 | 1159.4
303.15 K, x2 = 0.1178 | 1129.53
303.15 K, x2 = 0.1822 | 1103.48
303.15 K, x2 = 0.2248 | 1086.93
303.15 K, x2 = 0.2978 | 1059.75
303.15 K, x2 = 0.3681 | 1034.91
303.15 K, x2 = 0.4348 | 1012.48
303.15 K, x2 = 0.5038 | 990.33
303.15 K, x2 = 0.5598 | 973.11
303.15 K, x2 = 0.6139 | 957.05
303.15 K, x2 = 0.6738 | 939.89
303.15 K, x2 = 0.7355 | 922.85
303.15 K, x2 = 0.8021 | 905.11
303.15 K, x2 = 0.8837 | 884.19
303.15 K, x2 = 0.9475 | 868.42
313.15 K, x2 = 0 | 1161.28
313.15 K, x2 = 0.0564 | 1137.19
313.15 K, x2 = 0.1291 | 1107.58
313.15 K, x2 = 0.1781 | 1088.5
313.15 K, x2 = 0.2378 | 1066.16
313.15 K, x2 = 0.3021 | 1043.18
313.15 K, x2 = 0.3614 | 1022.91
313.15 K, x2 = 0.4243 | 1002.32
313.15 K, x2 = 0.4861 | 982.96
313.15 K, x2 = 0.5349 | 968.22
313.15 K, x2 = 0.5924 | 951.44
313.15 K, x2 = 0.6521 | 934.66
313.15 K, x2 = 0.7134 | 918.04
313.15 K, x2 = 0.7634 | 904.91
313.15 K, x2 = 0.8325 | 887.34
313.15 K, x2 = 0.9334 | 862.75
323.15 K, x2 = 0 | 1142.43
323.15 K, x2 = 0.0525 | 1120.74
323.15 K, x2 = 0.1203 | 1093.93
323.15 K, x2 = 0.1832 | 1070.24
323.15 K, x2 = 0.2498 | 1046.31
323.15 K, x2 = 0.3103 | 1025.54
323.15 K, x2 = 0.3667 | 1006.98
323.15 K, x2 = 0.4327 | 986.16
323.15 K, x2 = 0.4962 | 967.01
323.15 K, x2 = 0.5587 | 948.93
323.15 K, x2 = 0.6148 | 933.3
323.15 K, x2 = 0.6813 | 915.46
323.15 K, x2 = 0.7539 | 896.75
323.15 K, x2 = 0.8013 | 884.94
323.15 K, x2 = 0.8625 | 870.1
323.15 K, x2 = 0.9346 | 853.17
333.15 K, x2 = 0 | 1123.99
333.15 K, x2 = 0.0478 | 1104.87
333.15 K, x2 = 0.1249 | 1075.39
333.15 K, x2 = 0.1942 | 1050.25
333.15 K, x2 = 0.2571 | 1028.52
333.15 K, x2 = 0.3245 | 1006.29
333.15 K, x2 = 0.3878 | 986.36
333.15 K, x2 = 0.4313 | 973.16
333.15 K, x2 = 0.5138 | 949.16
333.15 K, x2 = 0.582 | 930.28
333.15 K, x2 = 0.6842 | 903.43
333.15 K, x2 = 0.7323 | 891.34
333.15 K, x2 = 0.7723 | 881.53
333.15 K, x2 = 0.8248 | 868.96
333.15 K, x2 = 0.8833 | 855.34
333.15 K, x2 = 0.9429 | 841.84
343.15 K, x2 = 0 | 1105.98
343.15 K, x2 = 0.0634 | 1081.55
343.15 K, x2 = 0.1278 | 1057.84
343.15 K, x2 = 0.1798 | 1039.5
343.15 K, x2 = 0.2348 | 1020.82
343.15 K, x2 = 0.3013 | 999.21
343.15 K, x2 = 0.3703 | 977.83
343.15 K, x2 = 0.4259 | 961.33
343.15 K, x2 = 0.4829 | 945.05
343.15 K, x2 = 0.5329 | 931.26
343.15 K, x2 = 0.5928 | 915.31
343.15 K, x2 = 0.6528 | 899.92
343.15 K, x2 = 0.7132 | 884.96
343.15 K, x2 = 0.7829 | 868.32
343.15 K, x2 = 0.8532 | 852.13
343.15 K, x2 = 0.9253 | 836.07
353.15 K, x2 = 0 | 1088.38
353.15 K, x2 = 0.0622 | 1065.11
353.15 K, x2 = 0.1199 | 1044.44
353.15 K, x2 = 0.1874 | 1021.32
353.15 K, x2 = 0.2401 | 1004.03
353.15 K, x2 = 0.3149 | 980.58
353.15 K, x2 = 0.3871 | 959.07
353.15 K, x2 = 0.451 | 940.91
353.15 K, x2 = 0.5249 | 920.84
353.15 K, x2 = 0.5832 | 905.67
353.15 K, x2 = 0.6591 | 886.72
353.15 K, x2 = 0.7249 | 870.97
353.15 K, x2 = 0.7719 | 860.05
353.15 K, x2 = 0.8529 | 841.86
353.15 K, x2 = 0.8941 | 832.88
353.15 K, x2 = 0.9483 | 821.31
